Experimental findings from patent EP1979351B1, “6-PHENYL-1H-IMIDAZO[4, 5-C]PYRIDINE-4-CARBONITRILE DERIVATIVES AS CATHEPSIN K AND S INHIBITORS” (N.V. Organon, priority 2006, dated 2007) are described below.

The experiment has as its target recombinant human Cathepsin S (Homo sapiens, UniProt P25774). As to the kind of experiment: Cathepsin S assay procedure: inhibition of enzyme activity, fluorescence of liberated aminomethylcoumarin. The class given is biochemical. The note with it: activated recombinant human cathepsin S; substrate Z-Val-Val-Arg-AMC; sodium acetate pH5.5; fluorescence at 20 minutes; dose response curve; read-out: pIC50 (negative logarithm of the IC50 concentration) for inhibition of human cathepsin S (converted). As to the method:
25µl of a 2mg/l solution of activated recombinant human cathepsin S, in assay buffer, is then added to the well, yielding a final inhibitor concentration of 10µM.
Enzyme activity is determined by measuring the fluorescence of the liberated aminomethylcoumarin at […] using 390nm excitation, at 20 minutes. Percentage enzyme activity is calculated by comparison of this activity to that of a solution containing no inhibitor.

SMILES strings stand for the structures.

Sequence of recombinant human Cathepsin S (P25774 115-331): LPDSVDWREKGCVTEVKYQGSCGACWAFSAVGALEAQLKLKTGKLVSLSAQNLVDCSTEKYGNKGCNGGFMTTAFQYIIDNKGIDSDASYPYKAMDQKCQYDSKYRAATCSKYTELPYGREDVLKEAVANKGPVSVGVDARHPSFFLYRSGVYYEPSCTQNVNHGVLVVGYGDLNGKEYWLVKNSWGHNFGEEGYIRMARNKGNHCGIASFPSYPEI

With `CCOc1ccc(-c2cc3c(ncn3CCCC(=O)O)c(C#N)n2)cc1C(F)(F)F` [Example 4, [4-Cyano-6-(4-ethoxy-3-trifluoromethyl-phenyl)-imidazo[4,5-c]pyridin-1-yl]-butyric acid], the IC50 is under 100 nM.
Turning to `CCOc1ccc(-c2cc3[nH]c(CN4CCN(CCO)CC4)nc3c(C#N)n2)cc1C(F)(F)F` [Example 13l, 6-(4-Ethoxy-3-trifluoromethyl-phenyl)-2-[4-(2-hydroxy-ethyl)-piperazin-1-ylmethyl]-1H-imidazo[4,5-c]pyridine-4-carbonitrile], the IC50 was under 100 nM.
